Patent US20150306108A1, “COMPOSITIONS OF ALDH1A1 INHIBITORS AND METHODS OF USE IN TREATING CANCER” (Indiana University Research & Technology Corporation, priority 2014, published 2015)
Like-named read-outs stand apart in the source and are kept apart here.

What was measured:
ALDH1A1 = target: T1, ALDH1A1 (Homo sapiens, UniProt P00352); test: ALDH1A1 aldehyde oxidation (dehydrogenase) activity assay, NADH formation at 340 nm; format: biochemical
T1 construct: made in house
T1 sequence (P00352 1-501): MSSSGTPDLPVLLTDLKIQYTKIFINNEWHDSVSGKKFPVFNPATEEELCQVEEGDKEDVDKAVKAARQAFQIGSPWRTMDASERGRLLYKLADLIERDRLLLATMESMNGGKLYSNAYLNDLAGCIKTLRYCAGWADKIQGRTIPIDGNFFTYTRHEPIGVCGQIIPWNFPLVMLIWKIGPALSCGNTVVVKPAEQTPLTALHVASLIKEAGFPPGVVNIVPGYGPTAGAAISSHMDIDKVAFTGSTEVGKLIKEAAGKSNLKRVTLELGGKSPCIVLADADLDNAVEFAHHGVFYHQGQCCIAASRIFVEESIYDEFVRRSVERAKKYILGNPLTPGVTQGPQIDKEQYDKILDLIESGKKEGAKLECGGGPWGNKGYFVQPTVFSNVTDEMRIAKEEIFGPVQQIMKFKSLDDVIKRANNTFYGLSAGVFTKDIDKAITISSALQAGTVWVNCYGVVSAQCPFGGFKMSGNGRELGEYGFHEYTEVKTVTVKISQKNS

ALDH3A1 = target: T2, ALDH3A1 (Homo sapiens, UniProt P30838); test: ALDH3A1 benzaldehyde oxidation activity assay; format: biochemical; details: Table 4; NI/NI(A) at 100 μM compound; read-out: IC50 in μM (SE) ALDH3A1
T2 construct: made in house
T2 sequence (P30838 1-453): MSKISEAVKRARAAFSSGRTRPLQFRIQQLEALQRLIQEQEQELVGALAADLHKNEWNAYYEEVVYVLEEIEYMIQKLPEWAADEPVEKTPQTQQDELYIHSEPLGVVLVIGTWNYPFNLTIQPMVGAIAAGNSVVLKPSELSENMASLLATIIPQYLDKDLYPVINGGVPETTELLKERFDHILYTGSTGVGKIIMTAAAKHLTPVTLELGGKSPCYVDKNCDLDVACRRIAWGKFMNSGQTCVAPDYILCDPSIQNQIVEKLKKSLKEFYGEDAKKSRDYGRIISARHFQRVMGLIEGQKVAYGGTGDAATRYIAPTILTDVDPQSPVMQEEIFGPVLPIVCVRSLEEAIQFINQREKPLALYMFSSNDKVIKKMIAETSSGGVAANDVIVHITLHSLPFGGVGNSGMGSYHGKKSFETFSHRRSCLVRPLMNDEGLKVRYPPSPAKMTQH
Description: Hits from the HTS were ordered from ChemDiv to determine if they had any effect on aldehyde oxidation and whether they were selective for ALDH1A1 compared to ALDH2 and ALDH3A1. Dehydrogenase activity of the three isoenzymes were assayed by monitoring the production of NADH at 340 nm (molar extinction coefficient of 6220 M^−1 cm^−1) on a Beckman DU-640 or Cary 300 Bio UV-Vis spectrophotometer for 2 to 3 minutes. For ALDH1A1 and ALDH2, the reaction contained 100-200 nM enzyme, 200 μM NAD^+, 100 μM propionaldehyde, and 1% DMSO in 50 mM Na^+ BES, pH 7.5 at room temperature. For ALDH3A1, the reaction contained 20 nM enzyme, 200 μM NAD^+, 300 μM benzaldehyde, and 1% DMSO in either 100 mM sodium phosphate or 50 mM Na^+ BES at pH 7.5 at room temperature.
For most compounds, 20 μM concentration was used for the selectivity assays. […] Following a 2 minute incubation of enzyme, compound, and NAD^+, the reaction was initiated by adding substrate. […] Data were fit to the four parameter EC50 equation using SigmaPlot (StatSys v12.3).
Dehydrogenase activity of purified recombinant ALDH1A1, ALDH1A2, ALDH1A3, ALDH1B1, ALDH2, and ALDH3A1 was assayed spectrophotometrically by monitoring the formation of NADH at 340 nm (molar extinction coefficient of 6220 M^−1 cm^−1) on a Beckman DU-640 or Cary 300 Bio UV-Vis spectrophotometer. Characterization of ALDH1A1 WT and ALDH1A1 G458N were performed by co-varying acetaldehyde and NAD^+ concentrations in reactions containing 150-300 nM enzyme, 50-500 μM or 20-200 μM acetaldehyde, and 50-500 μM NAD^+ in 50 mM sodium BES, pH 7.5 at 25° C. Reactions were initiated by adding enzyme. Selectivity of compounds for dehydrogenase activity of ALDH1A1, ALDH1A2, ALDH1A3, ALDH1B1 and ALDH2 were measured in a solution containing 100-200 nM enzyme, 200 μM NAD^+, 1% DMSO, and 100 μM propionaldehyde (non-saturating for all enzymes tested, except ALDH2) in 50 mM sodium BES. ALDH3A1 activity was measured under the following conditions: 25 nM enzyme, 200 μM NAD^+, 1% DMSO, and 300 μM benzaldehyde (˜KM) in either 100 mM sodium phosphate buffer, pH 7.5 or 50 mM sodium BES, pH 7.5. All assays were performed at 25° C. and were initiated by the addition of the aldehyde substrate following a 2 minute pre-incubation with compound and cofactor. Selectivity was initially tested using 20 μM compound, with ALDH1A1-selective modulators further tested using 100 μM compound. […] After a 2 minute pre-incubation with compound and NAD^+, all reactions were initiated by the addition of propionaldehyde. Data were fit to the four parameter EC50 equation using SigmaPlot (StatSys v12.3). The values represent the average of three independent experiments (each n=3). The mode of inhibition was determined via steady-state kinetics by co-varying inhibitor and substrate concentrations at fixed concentration of the second substrate. All reactions contained 100-150 nM ALDH1A1 and 1% DMSO in 50 mM sodium BES, pH 7.5 at 25° C. […] All data were fit to competitive, noncompetitive, uncompetitive, and mixed inhibition models using both single substrate-single inhibitor or tight binding inhibition programs in SigmaPlot (StatSys v12.3). The appropriate model was selected through analysis of goodness-of-fit and the residuals of those fits. The values represent the average of three independent experiments (each n=3) using at least two protein preps.
ALDH1A1, ALDH1A2, ALDH1A3, ALDH2, and ALDH3A1 were produced and purified as previously described. A highthroughput screen (HTS) of 64,000 compounds from the ChemDiv Corp. was performed to identify activators and inhibitors of ALDH1A1. The hydrolysis of para-nitrophenylacetate was used as a measure ALDH1A1 activity (see SM). Selectivity for closely related orthologs was tested at 20 and 100 μM using purified recombinant human ALDH1A1, ALDH1A2, ALDH1A3, ALDH2, and ALDH3A1. […]

IGROV1 cells = test: Spheroid formation under low attachment culture conditions; format: cell-based, human; details: 50 μM, 7 days, low attachment
Description: Ovarian cancer cell lines or primary cells were seeded at a concentration of 25,000 cells/ml in Mammocult complete medium (StemCell Technologies) and ultra-low attachment plates (Corning, Corning, N.Y.). Spheroids were trypsinized every 7 days and re-plated to generate successive generations. To observe spheroid morphology, A2780, SKOV3, IGROV1, and primary cells were cultured in a rotating bioreactor (Synthecon, Houston, Tex.) until […] compact spheroids were visible (10-30 days). They were harvested, preserved with Histochoice MB Tissue Fixative (Amresco, Solon, Ohio) for 1 hour, and embedded in Immuno-bed resin (Polysciences, Warrington, Pa.). Two micron thick sections were cut on an ultramicrotome and stained with 0.1% methylene blue/0.15% basic fuchsin in 50% methanol.
Cell viability was measured by the trypan blue (ThermoScientific) exclusion test. Cell proliferation was quantified by the MTT assay. Spheroids were counted after centrifugation at 300×g for 5 minutes. All assays were performed in four replicates. Data are presented as means±SEM.

ALDH1A2 = target: T3, ALDH1A2 (Homo sapiens, UniProt O94788); test: biochemical; format: biochemical; details: Table 4; NI/NI(A) at 100 μM compound; read-out: IC50 in μM (SE) ALDH1A2
T3 sequence (O94788 1-518): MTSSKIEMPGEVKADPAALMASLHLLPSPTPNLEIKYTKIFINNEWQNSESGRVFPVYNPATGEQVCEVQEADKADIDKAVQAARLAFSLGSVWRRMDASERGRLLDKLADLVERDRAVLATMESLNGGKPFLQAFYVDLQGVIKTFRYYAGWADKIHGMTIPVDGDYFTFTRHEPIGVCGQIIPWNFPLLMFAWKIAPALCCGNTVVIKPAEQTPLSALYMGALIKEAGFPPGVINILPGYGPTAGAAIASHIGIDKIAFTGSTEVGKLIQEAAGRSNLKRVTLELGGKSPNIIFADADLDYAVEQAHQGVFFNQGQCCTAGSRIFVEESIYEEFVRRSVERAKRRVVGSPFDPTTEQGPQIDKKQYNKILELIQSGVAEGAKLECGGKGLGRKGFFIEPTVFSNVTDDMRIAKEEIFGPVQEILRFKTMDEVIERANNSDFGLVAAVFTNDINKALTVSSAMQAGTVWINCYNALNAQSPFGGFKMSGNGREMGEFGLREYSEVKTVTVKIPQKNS

[1] = 100 μM propionaldehyde, 200 μM NAD+, mean/SEM of three independent assays, read-out: IC50 values with ALDH1A1 for compounds that inhibit dehydrogenase activity
[2] = list of inhibitors in summary and description, read-out: IC50 with the listed inhibitors of ALDH1A1 activity

Compound	IC50 (ALDH1A1; [1]) [µM]	IC50 (ALDH1A1; [2]) [µM]	further results
CCOc1cc(S(=O)(=O)NCc2cccnc2)c(C)cc1C [CM009]	5.3	5.3	
CCN1CCN(Cc2nc3c(c(=O)n(C)c(=O)n3C)n2CC(=O)c2ccccc2)CC1 [CM027]			IC50 (ALDH1A1; Table 4, NI/NI(A) at 100 μM compound, * <70% maximum inhibition, read-out: IC50 in μM (SE) ALDH1A1): 6.1 µM
Cc1ccc(Cn2c(CN3CCN(c4ccccc4)CC3)nc3c2c(=O)n(C)c(=O)n3C)cc1 [CM025]			IC50 (ALDH3A1): > 100 µM
CCC(C)NC(=O)C1(O)c2cc(Br)ccc2NC(O)N1c1ccc(Cl)cc1 (stereo not drawn) [CM020]	0.45	0.45	
CC(C)CCn1c(CN2CCC(C(N)=O)CC2)nc2c1c(=O)n(C)c(=O)n2C [CM053]			IC50 (ALDH3A1): > 100 µM
CCN(CC)c1ccc(C=O)cc1 [DEAB, diethylaminobenzaldehyde, reference compound]			formation of spheres (IGROV1 cells): completely inhibited
COc1ccc(S(=O)(=O)N2N=C(c3cccc(NS(C)(=O)=O)c3)CC2c2ccco2)cc1 (stereo not drawn) [CM045]	2.5	2.5	
Cc1cccc(Cn2c(CN3CCN(C(=O)c4ccco4)CC3)nc3c2c(=O)n(C)c(=O)n3C)c1 [CM055]			IC50 (ALDH3A1): > 100 µM; IC50 (ALDH1A2): > 100 µM
Cc1cc(C)c(S(=O)(=O)Nc2ccc(O)c(Cl)c2)cc1C [CM047]	0.31	0.31	
CC(C)CCn1c(CN2CCC(C)CC2)nc2c1c(=O)n(C)c(=O)n2C [CM057]			IC50 (ALDH3A1): > 100 µM
Cc1ccc(S(=O)(=O)NCC2CCC(C(=O)NCc3ccco3)CC2)cc1 (stereo not drawn) [CM307]	0.57	0.57	

Continued, in another order:

IC50 (ALDH1A1; [1]) [µM]	IC50 (ALDH1A1; [2]) [µM]	Compound	further results
1.1	1.1	Cc1ccc(-c2nnc(N3CCN(C)CC3)c3ccccc23)cc1C [CM001]	
3.5	3.5	CN1CCN(C(=O)c2ccc3c(c2)N(Cc2ccccc2)CCS3)CC1 [CM306]	
23		NC(=O)CSc1nc2c(sc3ccccc32)c(=O)n1CCCN1CCCC1 [CM037a]	
0.26	0.26	Cc1nc2ccccc2c2oc(C(=O)N3CCCCC3)cc12 [CM038]	IC50 (ALDH1A1; propionaldehyde oxidation, values in nM, read-out: IC50 with ALDH1A1): < 0.3 µM
1.3	1.3	C=CCc1cccc(CNc2nc3ccccc3n2CCC)c1O [CM010]	
